Series [1] relates to HEPG2. Description: Cell cycle analysis (PI DNA content). The format is cell-based, human. Here is the method: (§1) For the quantification of the DNA content, cells were treated with DMSO or 100 nM of NV651. Samples were collected at 24, 48, 72 and 96 h, followed by fixation with 70% (v/v) ethanol. DNA was stained with 50-µg/mL PI. Due to the capacity of PI to stain any type of nucleotide, RNase (100 µg/mL) (Sigma-Aldrich, Cat# R4875-100MG, St. Louis, MO, USA) was also added. To quantify the apoptotic cell fraction, we measured the subG1 fraction in the cell cycle.
(§2) Data was acquired with FACSverse Instrument and analyzed with FCS Express 6 Flow Research.

Series [2] deals with HUH7. Description: Cell cycle analysis (PI DNA content). The format is cell-based, human. Here is the method:
as §1, §2

Series [3] in a line: Body weight during xenograft treatment. The following applies: 10 mg/kg daily subcutaneous; 3 weeks. The format is in vivo, NMRI nude mice. Here is the method:
HEPG2 cells were transduced with RediFect Red-FLuc-GFP (Perkin Elmer, Cat# CLS960003, Waltham, MA, USA) with a MOI = 3 and sorted for GFP^+ in a FACSAria III (BD Biosciences, Franklin Lakes, NJ, USA). GFP^+Luciferase (Luc)^+ HEPG2 cells were confirmed to be negative for mycoplasma with the MycoAlert^TM Mycoplasma Detection Kit (Lonza, Cat# LT07-418, Basel, Switzerland). Cell viability and a percentage of the GFP^+ cells were analyzed before the start of the in vivo experiment with a BD FACSverse cytometer (BD Biosciences, Franklin Lakes, NJ, USA). Twenty NMRI nude female mice (6–8 weeks old) were injected in one flank with 1 million cells suspended in PBS with 50% Matrigel (Corning, Cat# 354230, Corning, NY, USA) in a total volume of 200 µL. […]
Tumor growth was assessed with an in vivo imaging system (IVIS) one week after the injection of the cells. […] Body weights were measured at time 0 of the treatment and twice a week after the beginning of the treatment. […] Tumor growth was analyzed for up to 3 weeks. BLI signal intensity was quantified in total flux (photons/s) after deducting the average background signal from the measurement region of interest (ROI) around the tumor area using live image analysis software (PerkinElmer, Waltham, MA, USA).

In the next series the test system is Dendritic cells. Put plainly: Cytotoxicity, CellTiter Glo. The series is classed as cell-based. The following applies: Homo sapiens, Dendritic cell, 168 h, 7 days of treatment, read-out: IC50 (50% reduction in cell viability). Here is the method: The evaluation of the off-target effects of NV651 was performed by ImQuest BioSciences Inc. (Frederick, MD, USA) by analyzing the cytotoxicity in a panel of primary cells. NV651 was evaluated at a concentration of 30 µM and five serial half-logarithmic dilutions in triplicate. The positive control compounds for each cell type were purchased from Sigma-Aldrich (St. Louis, MO, USA) and were as follows: Unstimulated human peripheral blood mononuclear cells (PBMCs), phytohemagglutinin (PHA)-stimulated PBMCs, monocytes/macrophages, dendritic cells, hepatocytes, induced pluripotent stem cell (iPS) neurons: […] AZT, kidney cells (RPTEC): cisplatin and iPS cardiomyocytes: Doxazosin. The isolation was based on Nair, Archer. Briefly, freshly separated PBMCs from one donor were suspended in DPBS at 4 × 10^6 cells per mL and cultured in a T-75 flask. Cells were incubated for 30 min and then washed 5–7 times with DPBS to remove nonadherent cells. Cells were cultured in RPMI 1640 supplemented with 10% FBS, 2-mM L-glutamine, 25-mM HEPES, […], 100-µg/mL streptomycin, 50-ng/mL rhGM-CSF and 50-ng/mL rhIL-4 and incubated for 7 days. After the incubation period, cells were cultured in the same media with the addition of LPS (10 ng/mL) for two days. […]

The test system of series [4] is HEPG2. Description: Phospho-Histone 3 (PH3) staining. The series is classed as cell-based, human. The following applies: 10 or 100 nM, 24 h. How it is done:
(§3) For the quantification of mitotic cells, HEPG2 cells were seeded in a 6-well plate at a concentration of 1.5 × 10^5 cells/well and HUH7 at 1 × 10^5 cells/well in a 6-well plate. Both cells lines were treated with 10 or 100 nM of NV651 or the equivalent volume of DMSO. Samples were fixed for HEPG2 at 24 h and for HUH7 at 48 h of treatment, as described above. Permeabilization was performed by adding 0.25% Tween20 (Sigma-Aldrich, Cat# P1379-500ML, St. Louis, MO, USA) diluted in PBS. Samples were stained with primary antibody mouse anti-PH3 (Merck Millipore, Cat# 05-806, Burlington, MA, USA) at a dilution of 1/100 overnight at 4 °C and with the secondary antibody goat anti-Mouse IgG AF488 conjugated (Life technologies, Cat# A11029, Carlsbad, CA, USA) for 1 h at room temperature. After washing, 1-µg/mL DAPI was added for the staining of the DNA content.
as §2

Series [5] deals with HUH7. Put plainly: Phospho-Histone 3 (PH3) staining. The format is cell-based, human. The note with it: 10 or 100 nM, 48 h. How it is done: as §3, §2

In the case of `CC(=O)CCC1C(=O)NC(C(C)C)C(=O)NC(Cc2cc(O)cc(F)c2)C(=O)N2CCCC(N2)C(=O)OC(C(C)=CC=CC(=O)OC(C)(C)C)CC=CC=CC(O)C(C)C1O` (stereo not shown) [NV651], the “cell size (FSC-A)” value with HEPG2 [1] (100 nM NV651) and in the series with HUH7 [2] (100 nM NV651) was “increased trend in the cell size” throughout. The “cell cycle distribution (DNA content)” value is recorded as “block in the G2/M phase” in the series on HEPG2 [1] (100 nM NV651, after 48–72 h) and “block in the G2/M phase” in the series on HUH7 [2] (100 nM NV651, after 48–72 h). Also, the “subG1 fraction (apoptotic cells)” value in the series with HEPG2 [1] (100 nM NV651 up to 96 h) and with HUH7 [2] (100 nM NV651 up to 96 h) was “statistically significant increase in cell death” in each case. Besides, the body weight entry in series [3] was “no significant changes”. For the same molecule, the IC50 in the series with Dendritic cells was determined as 24.2 µM. The “fraction of cells positive for the phosphorylation of histone 3 (PH3)” value in the series on HEPG2 [4] and with HUH7 [5] was “increased” each time.

Values taken from publication PMC8234462, “Novel Cyclophilin Inhibitor Decreases Cell Proliferation and Tumor Growth in Models of Hepatocellular Carcinoma” (Cancers, 2021).
